Assay results taken from PubChem BioAssay AID2060340 (Molecular Pharmacology Branch, DTP, NCI, 2025).

Tested on: 349418-098-R-PDC spheroids, viability, % test/control
Experiment: Anticancer human tumor 349418-098-R-PDC patient-derived lung adenocarcinoma cell line growth inhibition [IpAb]
Conditions: spheroids with HUVEC and MSC; for IC50: curve of first compound; for viability, T/C: stronger effect = lower value
Method in brief: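 Spheroids of 60% malignant cells, 25% HUVEC and 15% MSC were exposed to targeted agents combined with ipatasertib or abemaciclib. Doses started at or near clinical Cmax (10 microM when unknown) and fell in half-log steps.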

[1] = second compound 0.1 µM, first compound 0.0316 µM
[2] = second compound 0.1 µM, first compound 0.1 µM
[3] = second compound 0.1 µM, first compound 0.316 µM
[4] = second compound 0.1 µM, first compound 1 µM
[5] = second compound 0.1 µM, first compound 3.16 µM
[6] = second compound 0.1 µM, first compound 10 µM
[7] = second compound 0.316 µM, first compound 0.0316 µM
[8] = second compound 0.316 µM, first compound 0.1 µM
[9] = second compound 0.316 µM, first compound 0.316 µM
[10] = second compound 0.316 µM, first compound 1 µM
[11] = second compound 0.316 µM, first compound 3.16 µM
[12] = second compound 0.316 µM, first compound 10 µM
[13] = second compound 1 µM, first compound 0.0316 µM
[14] = second compound 1 µM, first compound 0.1 µM
[15] = second compound 1 µM, first compound 0.316 µM
[16] = second compound 1 µM, first compound 1 µM
[17] = second compound 1 µM, first compound 3.16 µM
[18] = second compound 1 µM, first compound 10 µM

Structure (SMILES)	IC50 (second compound 0.1 µM)	IC50 (second compound 0.316 µM)	IC50 (second compound 1 µM)	viability, T/C [1]	viability, T/C [2]	viability, T/C [3]	viability, T/C [4]	viability, T/C [5]	viability, T/C [6]	viability, T/C [7]	viability, T/C [8]	viability, T/C [9]	viability, T/C [10]	viability, T/C [11]	viability, T/C [12]	viability, T/C [13]	viability, T/C [14]	viability, T/C [15]	viability, T/C [16]	viability, T/C [17]	other results
CC1(C)CCC(CN2CCN(c3ccc(C(=O)NS(=O)(=O)c4ccc(NCC5CCOCC5)c([N+](=O)[O-])c4)c(Oc4cnc5[nH]ccc5c4)c3)CC2)=C(c2ccc(Cl)cc2)C1 + CC(C)NCC(C(=O)N1CCN(c2ncnc3c2C(C)CC3O)CC1)c1ccc(Cl)cc1	3820 nM	326 nM	< 31.6 nM	99.2%	96.5%	97.8%	78%	60.6%	7.06%	64.7%	49.4%	50.6%	40.1%	31.4%	5.53%	30%	29.5%	27.3%	20.4%	16%	IC50 (second compound 3.16 µM): < 31.6 nM; IC50 (second compound 10 µM): < 31.6 nM; viability, T/C [18]: 4.15%; viability, T/C (second compound 3.16 µM, first compound 0.0316 µM): 13.3%; viability, T/C (second compound 3.16 µM, first compound 0.1 µM): 13%; viability, T/C (second compound 3.16 µM, first compound 0.316 µM): 11.5%; viability, T/C (second compound 3.16 µM, first compound 1 µM): 12.3%; viability, T/C (second compound 3.16 µM, first compound 3.16 µM): 8.4%; viability, T/C (second compound 3.16 µM, first compound 10 µM): 3.13%; viability, T/C (second compound 10 µM, first compound 0.0316 µM): 8.33%; viability, T/C (second compound 10 µM, first compound 0.1 µM): 8.41%; viability, T/C (second compound 10 µM, first compound 0.316 µM): 8.13%; viability, T/C (second compound 10 µM, first compound 1 µM): 7.39%; viability, T/C (second compound 10 µM, first compound 3.16 µM): 5.52%; viability, T/C (second compound 10 µM, first compound 10 µM): 2.19%
Cc1nc(NC(=O)N2CCCC2C(N)=O)sc1-c1ccnc(C(C)(C)C(F)(F)F)c1 (stereo not given) + CCN1CCN(Cc2ccc(Nc3ncc(F)c(-c4cc(F)c5nc(C)n(C(C)C)c5c4)n3)nc2)CC1	< 31.6 nM	< 31.6 nM	< 31.6 nM	20.3%	13.9%	9.49%	7.63%	7.46%	7.65%	15.9%	12.6%	9.79%	8.43%	9%	7.65%	12.8%	11.4%	9.14%	7.42%	7.89%	IC50 (second compound 0.01 µM): 47.5 nM; IC50 (second compound 0.0316 µM): < 31.6 nM; viability, T/C (second compound 0.01 µM, first compound 0.0316 µM): 59.8%; viability, T/C (second compound 0.01 µM, first compound 0.1 µM): 32.7%; viability, T/C (second compound 0.01 µM, first compound 0.316 µM): 17.9%; viability, T/C (second compound 0.01 µM, first compound 1 µM): 14.1%; viability, T/C (second compound 0.01 µM, first compound 3.16 µM): 10.2%; viability, T/C (second compound 0.01 µM, first compound 10 µM): 8.7%; viability, T/C (second compound 0.0316 µM, first compound 0.0316 µM): 40.5%; viability, T/C (second compound 0.0316 µM, first compound 0.1 µM): 27.1%; viability, T/C (second compound 0.0316 µM, first compound 0.316 µM): 12.1%; viability, T/C (second compound 0.0316 µM, first compound 1 µM): 7.43%; viability, T/C (second compound 0.0316 µM, first compound 3.16 µM): 7.43%; viability, T/C (second compound 0.0316 µM, first compound 10 µM): 8.13%; viability, T/C [18]: 6.94%
